Assay results from PMC10510381, “Alkyne as a Latent Warhead to Covalently Target SARS-CoV-2 Main Protease” (Journal of Medicinal Chemistry, 2023).

Target: C145A mutant of M^pro (Severe acute respiratory syndrome coronavirus 2, UniProt P0DTD1, C3408A)
Type: cell-based, SARS-CoV-2

C#CC[C@H](NC(=O)C(F)(F)F)C(=O)N1C[C@H]2[C@@H]([C@H]1C(=O)N[C@H](C#C)C[C@@H]1CCNC1=O)C2(C)C [Alk-4d, O=C1NCC[C@H]1C[C@@H](C#C)NC([C@H]2N(C([C@@H](NC(C(F)(F)F)=O)CC#C)=O)C[C@H]3[C@@H]2C3(C)C)=O]
labeling of C145A mutant of M^pro in cells: no labeling
